Where two headings read alike, the source gives them in different places.
Experiments:
[1] = tested on: erythema of stripped skin (vasoconstriction); assay: vasoconstriction test (topical efficacy), difference in degree of efficacy vs diflucortolone 21-valerate (DFV); assay type: in vivo, healthy test persons (human); conditions: 0.1 p.p.m. active agent, positive = more favorable than DFV
Experimental: The topical efficacy can be determined as follows using the vasoconstriction test.
The test was conducted on respectively eight healthy test persons of both sexes, who had not received any local corti costeroid treatment within the preceding two weeks. After the stratum corneum on the test persons' backs was removed down to the stratum lucidum (20-40 times application and tearing off of an adhesive film), respectively 0.1 g. of the preparations was applied to areas of a size of 4 cm^2 without protective dressing. To avoid the application of the identical preparation to identical skin areas, the application is done in a rotating fashion. The vasoconstriction is evaluated visually after 4 and 8 hours by the investigator in accordance with the following grades of effectiveness: 1=absolute fading; 2=minor residual erythema; 3=medium-grade erythema, reddening intensity in the central zone of stripped, untreated and undamaged skin; 4=erythema with minor fading; 5=no fading, or intensification of erythema.
The individual evaluations were averaged.
In each test series, diflucortolone 21-valerate (=6α,9α-difluoro-11β-hydroxy-16α-methyl-21-valeryloxy-1,4-pregnadiene-3,20-dione=DFV) is utilized as the reference compound.
The difference Δ of the average degrees of efficacy of DFV and of the test compound determined in the individual series of investigations is calculated in each case. Positive deviations Δ show a more favorable evaluation: negative deviations show a more unfavorable evaluation of the test compound as compared to DFV.
The tables set forth below list the observed test results obtained when treating the test persons with a preparation containing 0.1 p.p.m. of active agent.

[2] = tested on: paw edema (Mycobacterium butyricum suspension); assay: adjuvant edema test (systemic effectiveness); assay type: in vivo, SPF rats; conditions: for ED50: Mycobacterium
Experimental: The systemic effectiveness of the compounds can be determined with the aid of the adjuvant edema test as follows:
SPF rats weighing 130-150 g. are injected in the right hind paw, for producing a center of inflammation, with 0.1 ml. of a 0.5% Mycobacterium butyricum suspension (obtainable from the U.S. company Difco). Prior to injection, the paw volume of the rats is measured. Twenty-four hours after injection, the paw volume is measured once again to determine the extent of the edema. Thereafter, varying amounts of the test compound--dissolved in a mixture of 29% benzyl benzoate and 71% castor oil--are administered orally or subcutaneously to the rats. After another 24 hours, the paw volume is again determined.
The control animals are treated in the same way, except that they are injected with a benzyl benzoate-castor oil mixture free of test compound.
From the paw volumes determined, the amount of test compound required for attaining a 50% reduction in volume of the experimentally produced paw edema is calculated in the usual way.
The following tables indicate the thus-obtained test results, wherein in each case the compounds of this invention are compared with the conventional corticoids contained in commercially available preparations which are most analogous in structure.

[3] = rats, oral, 24 h after administration
[4] = rats, subcutaneous, 24 h after administration
[5] = sc, rats, subcutaneous, 24 h after administration, read-out: Adjuvant Edema Test ED50 s.c. (50% reduction in volume of paw edema)
[6] = rats, oral, 24 h after administration, read-out: Adjuvant Edema Test ED50 p.o. (50% reduction in volume of paw edema)

Molecule	Vasoconstriction Test Δ After 8 h. (difference of average degrees of efficacy of DFV and test compound) [1]	Adjuvant Edema Test ED50 s.c. (50% reduction in volume of paw edema) [2, 4]	ED50 [2, 5]	other results
6α-Fluoro-11β,21-dihydroxy-17α-methoxymethoxy-4-pregnene-3,20-dione [No. 25]	+1.3	–	–	Vasoconstriction Test Δ After 4 h. (difference of average degrees of efficacy of DFV and test compound) [1]: +1.0; Adjuvant Edema Test ED50 p.o. (50% reduction in volume of paw edema) [2, 3]: about 8 mg./kg. Animal
11β,21-Dihydroxy-17α-methoxymethoxy-1,4-pregnadiene-3,20-dione [No. 9]	+0.4	about 3 mg./kg. Animal	–	–
11β,21-Dihydroxy-17α-propoxymethoxy-4-pregnene-3,20-dione [No. 4]	+0.7	3.2 mg./kg. Animal	–	Vasoconstriction Test Δ After 4 h. (difference of average degrees of efficacy of DFV and test compound) [1]: +0.4
11β,21-dihydroxy-17α-(1'-methoxyethoxy)-6α-methyl-1,4-pregnadiene-3,20-dione [Example 12]	–	about 3 mg./kg. Animal	–	–
11β,21-dihydroxy-17α-methoxymethoxy-16β-methyl-4-pregnene- 3,20-dione [Example 17]	–	2.1 mg./kg. Animal	–	–
11β-hydroxy-17α-methoxymethoxy-21-propionyloxy-4-pregnene-3,20- dione [Example 19]	+0.5	1.9 mg./kg. Animal	–	Vasoconstriction Test Δ After 4 h. (difference of average degrees of efficacy of DFV and test compound) [1]: +0.5
11β-hydroxy-17α-methoxymethoxy-21-trimethylacetoxy-4-pregnene-3,20-dione [Example 21]	–	3.0 mg./kg. Animal	–	–
17α-Butoxymethoxy-11β,21-dihydroxy-4-pregnene-3,20-dione [No. 6]	+1.0	about 1 mg./kg. Animal	–	Vasoconstriction Test Δ After 4 h. (difference of average degrees of efficacy of DFV and test compound) [1]: +0.9
17α-Ethoxymethoxy-11β,21-dihydroxy-4-pregnene-3,20-dione [No. 3]	0.0	3.0 mg./kg. Animal	–	Vasoconstriction Test Δ After 4 h. (difference of average degrees of efficacy of DFV and test compound) [1]: -0.3; Adjuvant Edema Test ED50 p.o. (50% reduction in volume of paw edema) [2, 3]: 22 mg./kg. Animal
21-Acetoxy-9α-chloro-11β-hydroxy-17α-methoxymethoxy-4-pregnene-3,20-dione [No. 14]	–	–	–	Vasoconstriction Test Δ After 4 h. (difference of average degrees of efficacy of DFV and test compound) ([1]; listed as 26): -0.8; Vasoconstriction Test Δ After 4 h. (difference of average degrees of efficacy of DFV and test compound) ([1]; listed as 27): +0.6; Vasoconstriction Test Δ After 8 h. (difference of average degrees of efficacy of DFV and test compound) ([1]; listed as 26): -0.9; Vasoconstriction Test Δ After 8 h. (difference of average degrees of efficacy of DFV and test compound) ([1]; listed as 27): +0.6; Adjuvant Edema Test ED50 p.o. (50% reduction in volume of paw edema) [2, 3]: 22 mg./kg. Animal
21-Acetoxy-11β-hydroxy-17α-methoxymethoxy-1,4-pregnadiene-3,20-dione [No. 10]	+1.0	3.0 mg./kg. Animal	–	Vasoconstriction Test Δ After 4 h. (difference of average degrees of efficacy of DFV and test compound) [1]: +0.5
21-Butyryloxy-11β-hydroxy-17α-methoxymethoxy-1,4-pregnadiene-3,20-dione [No. 12]	+0.2	about 1 mg./kg. Animal	–	Vasoconstriction Test Δ After 4 h. (difference of average degrees of efficacy of DFV and test compound) [1]: +0.5
21-acetoxy-11β-hydroxy-17α-methoxymethoxy-4-pregnene-3,20-dione [Example 18]	–	0.13 mg./kg. Animal	–	–
21-acetoxy-17α-methoxymethoxy-4-pregnene-3,11,20-trione [Example 24]	–	–	–	Adjuvant Edema Test ED50 s.c. (50% reduction in volume of paw edema) ([2]; rats, subcutaneous, 24 h after administration, 1440 min): 3.5 mg./kg. Animal; Adjuvant Edema Test ED50 s.c. (50% reduction in volume of paw edema) ([2]; rats, subcutaneous, 24 h after administration, listed as 25, 1440 min): 4.0 mg./kg. Animal
21-butyryloxy-11β-hydroxy-17α-methoxymethoxy-4-pregnene-3,20-dione [Example 20]	–	2.0 mg./kg. Animal	–	–
CCCC(=O)O[C@]1(C(=O)CO)CC[C@H]2[C@@H]3CCC4=CC(=O)CC[C@]4(C)[C@H]3[C@@H](O)C[C@@]21C [compound 1]	–	–	13 mg/kg	ED50 [2, 6]: 54 mg/kg
COCO[C@]1(C(=O)CO)CC[C@H]2[C@@H]3CCC4=CC(=O)CC[C@]4(C)[C@H]3[C@@H](O)C[C@@]21C [compound 2]	–	–	13 mg/kg	ED50 [2, 6]: 67 mg/kg
CCOCO[C@]1(C(=O)CO)CC[C@H]2[C@@H]3CCC4=CC(=O)CC[C@]4(C)[C@H]3[C@@H](O)C[C@@]21C [compound 3]	–	–	14.5 mg/kg	–
CCCOCO[C@]1(C(=O)CO)CC[C@H]2[C@@H]3CCC4=CC(=O)CC[C@]4(C)[C@H]3[C@@H](O)C[C@@]21C [compound 4]	–	–	~10 mg/kg	–
CC(C)OCO[C@]1(C(=O)CO)CC[C@H]2[C@@H]3CCC4=CC(=O)CC[C@]4(C)[C@H]3[C@@H](O)C[C@@]21C [compound 5]	–	–	> 30 mg/kg	Adjuvant Edema Test, percentage in parentheses beside ED50 s.c. bound ([2]; rats, subcutaneous, at 30 mg./kg.): 42%
CCCCOCO[C@]1(C(=O)CO)CC[C@H]2[C@@H]3CCC4=CC(=O)CC[C@]4(C)[C@H]3[C@@H](O)C[C@@]21C [compound 6]	–	–	20 mg/kg	–
C[C@]12CCC(=O)C=C1CC[C@@H]1[C@@H]2[C@@H](O)C[C@@]2(C)[C@H]1CC[C@]2(OC1CCCCO1)C(=O)CO (stereo partly drawn) [compound 7]	–	–	12 mg/kg	–
C[C@]12C=CC(=O)C=C1CC[C@@H]1[C@@H]2[C@@H](O)C[C@@]2(C)[C@H]1CC[C@]2(O)C(=O)CO [compound 8]	–	–	–	ED50 ([2]; in Rattus norvegicus, po, 24 h, read-out: Adjuvant Edema Test ED50 p.o. (50% reduction in volume of paw edema)): 8.6 mg/kg; ED50 ([2]; in Rattus norvegicus, sc, 24 h, read-out: Adjuvant Edema Test ED50 s.c. (50% reduction in volume of paw edema)): 2.6 mg/kg
COCO[C@]1(C(=O)CO)CC[C@H]2[C@@H]3CCC4=CC(=O)C=C[C@]4(C)[C@H]3[C@@H](O)C[C@@]21C [compound 9]	–	–	–	ED50 [2, 6]: 9.8 mg/kg
COCO[C@]1(C(=O)COC(C)=O)CC[C@H]2[C@@H]3CCC4=CC(=O)C=C[C@]4(C)[C@H]3[C@@H](O)C[C@@]21C [compound 10]	–	–	> 3 mg/kg	Adjuvant Edema Test, percentage in parentheses beside ED50 s.c. bound ([2]; rats, subcutaneous, at 3 mg./kg.): 25%

From patent US4207316A, “Novel 17-substituted 11 β-hydroxy steroids of the pregnane series, their manufacture, preparation and use” (Schering Aktiengesellschaft, priority 1978, dated 1980)
